The record followed here is PubChem BioAssay (NCI).

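Cells were grown in 96-well plates and exposed to each compound for 48 hours at five concentrations; endpoints were interpolated linearly between bracketing concentrations, or set to the highest concentration if not reached. GI50 is the concentration that inhibits growth by half. TGI marks complete inhibition of growth.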

What all share (assay): NCI anticancer screen, dose series, 48 h
Assay [1] concerns MALME-3M melanoma.
For assay [2], the system named is SNB-19 CNS.
The subject of assay [3] is NCI-H522 lung.
The test system of assay [4] is DU-145 prostate.
Assay [5] has as its system U251 CNS.
The test system of assay [6] is HCT-15 colon.
The subject of assay [7] is HS 578T breast.
Assay [8] has as its system SK-MEL-5 melanoma.

On to `CCOC(=O)c1ccc2[nH]c(Cc3[nH]c4ccc(C(=O)OCC)cc4c3C)c(C)c2c1`, for which the GI50 in assay [1] is 3.73 µM; in assay [2], 3.9 µM; in assay [3], 3.27 µM; in assay [4], 3.37 µM; in assay [5], 0.473 µM; in assay [6], 0.129 µM. Moreover, the GI50 in assay [7] is 3.29 µM; in assay [8], 1.22 µM. The TGI in assay [1] was found to be 17.7 µM; in assay [2], 25.9 µM; in assay [3] it was 19.2 µM; in assay [4], 17.5 µM; in assay [5], 7.97 µM; in assay [6], 21.4 µM. The TGI in assay [7] amounted to 23.1 µM; in assay [8], 14.5 µM.

With `COc1cc(/C=C/C(=O)CC(=O)/C=C/c2ccc(OC(=O)CCNC34CC5CC(CC(C5)C3)C4)c(OC)c2)ccc1OC(=O)CCNC12CC3CC(CC(C3)C1)C2`, the GI50 was 5.28 µM in assay [1]; 4.65 µM in assay [2]; 4.27 µM in assay [3]; 1.4 µM in assay [4]; 3.39 µM in assay [5]; 4.49 µM in assay [6]. Moreover, the GI50 in assay [7] is 2.85 µM; in assay [8] it was 3.28 µM. Besides, the TGI in assay [1] is 17.9 µM; in assay [2] it was 18.4 µM; in assay [3] it was 16.1 µM; in assay [4], 3.13 µM; in assay [5], 12 µM; in assay [6], 17.6 µM. For the same molecule, the TGI in assay [7] came to 9.17 µM; in assay [8], 12.6 µM.

Regarding `O=C1NC(=O)[C@H]2C3C=CC([C@@H]12)[C@@H]1C(=O)NC(=O)[C@H]31`, the TGI in assay [1], in assay [2], in assay [3], in assay [4], in assay [5] and in assay [6] was above 100 µM throughout. In addition, the TGI in assay [7] and in assay [8] was above 100 µM in each case.

Consider `COc1ccc2c(c1)C(=O)c1c-2c(N2CCN(C(=O)CN(C)C)CC2)nc2ccccc12`, for which the GI50 is 23 µM in assay [1]; 16.6 µM in assay [2]; 13.7 µM in assay [3]; 14.8 µM in assay [4]; 14.9 µM in assay [5]; 14.4 µM in assay [6]. For the same molecule, the GI50 in assay [7] is 11.6 µM; in assay [8], 18.2 µM. Further, the TGI came out at 58.1 µM in assay [1]; 35.9 µM in assay [2]; 30.6 µM in assay [3]; 35.2 µM in assay [4]; 30.6 µM in assay [5]; 32.3 µM in assay [6]. The TGI in assay [7] stood at 31.9 µM; in assay [8], 34.6 µM.

As for `Nc1c(C(=O)Nc2cccc3ccccc23)sc2nc3c(cc12)CCCCC3`, the GI50 was 31.9 µM in assay [1]; 0.662 µM in assay [2]; 0.724 µM in assay [3]; 1.73 µM in assay [4]; 0.998 µM in assay [5]; 0.309 µM in assay [6]. Moreover, the GI50 is 0.35 µM in assay [7] and 0.347 µM in assay [8]. Moreover, the TGI was above 50 µM in assay [1]; above 50 µM in assay [2]; 4.7 µM in assay [3]; above 50 µM in assay [4]; above 50 µM in assay [5]; above 50 µM in assay [6]. Moreover, the TGI in assay [7] was above 50 µM; in assay [8] it was 11.5 µM.

Consider `O=C(/C=C/C12c3ccccc3C(c3ccccc31)C1C(=O)NC(=O)C12)c1ccco1` (stereo unspecified), for which the GI50 in assay [1] was 2.35 µM; in assay [2], 2.19 µM; in assay [3], 1.84 µM; in assay [4], 2.98 µM; in assay [5] it was 2.01 µM; in assay [6], 2.14 µM. Further, the results for the GI50 in assay [7] and in assay [8] were 4.16 µM and 1.77 µM, respectively. Besides, the TGI in assay [1] came out at 6.72 µM; in assay [2], 5.17 µM; in assay [3], 3.75 µM; in assay [4] it was 11.9 µM; in assay [5] it was 4.36 µM; in assay [6], 5.43 µM. Moreover, the TGI in assay [7] was determined as 30.2 µM; in assay [8], 3.28 µM.

Take `O=C(Nc1cccc(-c2nc3ccccc3[nH]2)c1)c1cccc(NC(=O)c2ccco2)c1`: the GI50 in assay [1] is 2.11 µM; in assay [2], 2.86 µM; in assay [3], 2.5 µM; in assay [4], 1.76 µM; in assay [5] it was 1.73 µM; in assay [6], 3.06 µM. In addition, the GI50 in assay [7] was 2.2 µM; in assay [8] it was 1.89 µM. Also, the TGI in assay [1] came out at 4.34 µM; in assay [2] it was 8.19 µM; in assay [3], 6.41 µM; in assay [4], 3.15 µM; in assay [5], 3.23 µM; in assay [6], 10.8 µM. The TGI stood at 5.97 µM in assay [7] and 4.1 µM in assay [8].

Turning to `C=C1C(=O)O[C@H]2[C@H]1CC/C(Cn1cc(Cn3ccc4cc(Cl)ccc43)nn1)=C\CC[C@@]1(C)O[C@@H]21`, the GI50 in assay [1] is 1.58 µM; in assay [2], 1.97 µM; in assay [3], 1.26 µM; in assay [4] it was 1.55 µM; in assay [5], 1.69 µM; in assay [6] it was 1.14 µM. Moreover, the GI50 is 2.5 µM in assay [7] and 1.73 µM in assay [8]. The TGI in assay [1] came to 3.13 µM; in assay [2], 4.49 µM; in assay [3], 2.87 µM; in assay [4], 2.89 µM; in assay [5] it was 3.35 µM; in assay [6], 2.66 µM. Moreover, the TGI in assay [7] is 6.68 µM; in assay [8], 3.32 µM.

For `CCC(=O)Nc1ccc2c(c1)CN1C(=O)c3ccccc3C1=N2`, the GI50 in assay [1], in assay [2], in assay [3], in assay [4], in assay [5] and in assay [6] was above 100 µM in each case. The GI50 in assay [7] and in assay [8] was above 100 µM throughout. For the same molecule, the TGI in assay [1], in assay [2], in assay [3], in assay [4], in assay [5] and in assay [6] was above 100 µM each time. In addition, the TGI in assay [7] and in assay [8] was above 100 µM in each case.
